Test results from ChEMBL document CHEMBL5104139, “A critical update on the strategies towards small molecule inhibitors targeting Serine/arginine-rich (SR) proteins and Serine/arginine-rich proteins related kinases in alternative splicing” (Bioorg Med Chem, 2022).
Blank lines part the entries; values can stand above or below the molecule they belong to.

Tests used:
SRSF protein kinase 1 = SRSF protein kinase 1 (Homo sapiens, UniProt Q96SB4)
[1] = target: T1, Serine/arginine-rich splicing factor 6 (Homo sapiens, UniProt Q13247); test: Inhibition of SRSF6 (unknown origin)
T1 sequence (Q13247 whole entry): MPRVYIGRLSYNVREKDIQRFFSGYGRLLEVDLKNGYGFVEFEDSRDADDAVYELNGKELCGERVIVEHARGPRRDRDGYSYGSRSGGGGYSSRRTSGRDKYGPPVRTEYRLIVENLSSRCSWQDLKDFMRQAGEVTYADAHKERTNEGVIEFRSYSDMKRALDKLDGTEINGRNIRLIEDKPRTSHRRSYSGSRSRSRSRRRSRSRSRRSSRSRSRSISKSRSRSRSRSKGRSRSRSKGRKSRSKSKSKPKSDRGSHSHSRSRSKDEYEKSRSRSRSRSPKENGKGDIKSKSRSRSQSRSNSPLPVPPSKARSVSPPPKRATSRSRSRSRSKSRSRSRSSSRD

[2] = target: Cyclin-dependent kinase 5 (Homo sapiens, UniProt Q00535); test: Inhibition of CDK5 (unknown origin)
Sequence of Cyclin-dependent kinase 5 (Q00535 whole entry): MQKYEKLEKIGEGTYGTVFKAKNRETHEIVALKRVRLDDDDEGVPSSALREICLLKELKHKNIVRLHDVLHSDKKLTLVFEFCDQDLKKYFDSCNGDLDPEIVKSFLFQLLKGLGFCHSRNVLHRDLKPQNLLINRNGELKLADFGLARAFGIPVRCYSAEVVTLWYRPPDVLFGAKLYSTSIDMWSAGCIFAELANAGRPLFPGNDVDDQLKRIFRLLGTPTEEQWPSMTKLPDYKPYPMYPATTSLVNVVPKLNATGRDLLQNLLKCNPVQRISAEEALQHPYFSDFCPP

[3] = target: Glycogen synthase kinase-3 (Homo sapiens, UniProt P49840+P49841); test: Inhibition of GSK3 (unknown origin); assay type: protein assay
[4] = target: T2, Dual specificity tyrosine-phosphorylation-regulated kinase 1A (Homo sapiens, UniProt Q13627)
[5] = target: T2, Dual specificity tyrosine-phosphorylation-regulated kinase 1A; test: Inhibition of DYRK1A (unknown origin) at 1 uM relative to control
K562 = test: Cytotoxicity against human K562 cells; assay type: functional, cell-based
HL-60 = test: Cytotoxicity against HL-60 cells; assay type: functional, cell-based; conditions: Homo sapiens
SRSF protein kinase 2 = SRSF protein kinase 2 (Homo sapiens, UniProt P78362)
Sequence of SRSF protein kinase 2 (P78362 whole entry): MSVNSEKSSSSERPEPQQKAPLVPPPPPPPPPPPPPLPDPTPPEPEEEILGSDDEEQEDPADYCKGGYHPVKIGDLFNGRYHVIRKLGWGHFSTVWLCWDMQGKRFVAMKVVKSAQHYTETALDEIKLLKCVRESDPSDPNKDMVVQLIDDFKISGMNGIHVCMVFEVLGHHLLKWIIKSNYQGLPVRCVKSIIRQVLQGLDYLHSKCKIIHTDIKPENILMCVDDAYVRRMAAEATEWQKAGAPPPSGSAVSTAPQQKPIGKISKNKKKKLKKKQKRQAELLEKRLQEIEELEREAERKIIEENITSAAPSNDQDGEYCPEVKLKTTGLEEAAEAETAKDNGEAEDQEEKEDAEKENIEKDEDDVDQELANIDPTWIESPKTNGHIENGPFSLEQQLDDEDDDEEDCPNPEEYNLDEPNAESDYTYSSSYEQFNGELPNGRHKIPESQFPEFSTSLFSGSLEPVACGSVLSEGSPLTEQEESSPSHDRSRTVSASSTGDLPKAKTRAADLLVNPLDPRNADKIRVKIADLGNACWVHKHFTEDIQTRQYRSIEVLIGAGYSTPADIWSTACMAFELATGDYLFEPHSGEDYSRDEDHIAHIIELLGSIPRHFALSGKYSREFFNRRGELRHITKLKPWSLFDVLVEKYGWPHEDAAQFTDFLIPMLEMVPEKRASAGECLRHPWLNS

[6] = target: Dual specificity protein kinase CLK2 (Homo sapiens, UniProt P49760)
Sequence of Dual specificity protein kinase CLK2 (P49760 whole entry): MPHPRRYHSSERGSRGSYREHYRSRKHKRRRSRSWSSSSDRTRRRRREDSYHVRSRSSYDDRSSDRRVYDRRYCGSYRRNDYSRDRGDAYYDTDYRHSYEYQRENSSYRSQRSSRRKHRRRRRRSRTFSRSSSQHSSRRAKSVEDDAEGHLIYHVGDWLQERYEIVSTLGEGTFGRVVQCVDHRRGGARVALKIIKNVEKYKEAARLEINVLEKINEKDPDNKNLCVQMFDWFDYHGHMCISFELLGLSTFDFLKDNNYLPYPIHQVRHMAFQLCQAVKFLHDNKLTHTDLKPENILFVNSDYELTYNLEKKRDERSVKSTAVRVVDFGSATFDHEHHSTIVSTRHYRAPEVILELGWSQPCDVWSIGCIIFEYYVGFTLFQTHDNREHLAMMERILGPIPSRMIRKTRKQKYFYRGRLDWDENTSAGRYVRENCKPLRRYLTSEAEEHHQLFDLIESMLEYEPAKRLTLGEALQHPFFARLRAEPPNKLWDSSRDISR

Sequence of SRSF protein kinase 1 (Q96SB4 whole entry): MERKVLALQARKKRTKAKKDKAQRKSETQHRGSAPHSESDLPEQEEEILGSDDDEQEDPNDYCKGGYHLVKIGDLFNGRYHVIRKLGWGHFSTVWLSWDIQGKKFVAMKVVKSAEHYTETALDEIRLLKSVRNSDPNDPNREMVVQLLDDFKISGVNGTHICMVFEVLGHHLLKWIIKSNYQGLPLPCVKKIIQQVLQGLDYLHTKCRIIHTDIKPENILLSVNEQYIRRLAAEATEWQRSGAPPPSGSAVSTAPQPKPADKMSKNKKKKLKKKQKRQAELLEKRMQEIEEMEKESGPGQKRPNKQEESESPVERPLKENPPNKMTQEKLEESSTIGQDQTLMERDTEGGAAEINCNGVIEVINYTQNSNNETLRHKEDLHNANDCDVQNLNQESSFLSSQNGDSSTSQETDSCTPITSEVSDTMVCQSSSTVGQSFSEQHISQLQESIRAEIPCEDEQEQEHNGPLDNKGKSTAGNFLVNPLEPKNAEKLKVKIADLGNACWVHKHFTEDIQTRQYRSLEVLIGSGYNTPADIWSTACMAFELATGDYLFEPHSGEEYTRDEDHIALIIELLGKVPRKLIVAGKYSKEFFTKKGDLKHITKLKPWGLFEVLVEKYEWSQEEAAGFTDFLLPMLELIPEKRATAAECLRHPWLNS

SMILES: O=C(Nc1cc(C(F)(F)F)ccc1N1CCCCC1)c1ccncc1
IC50 (SRSF protein kinase 1): 890 nM

IC50 [1]: 19000 nM
SMILES: CCc1cc2c(cc1CC)CC(NC[C@H](O)c1ccc(O)c3[nH]c(=O)ccc13)C2 [INDACATEROL]

IC50 [2]: 720 nM
IC50 [3]: 310 nM
IC50 [4]: 67 nM
SMILES: O=c1oc2cc(O)ccc2c2c1[nH]c1ccc(O)cc12

IC50 [2]: 2700 nM
IC50 [3]: 380 nM
IC50 [4]: 74 nM
SMILES: C.O=c1oc2cc(O)ccc2c2c1[nH]c1ccccc12

inhibition [5]: 84%
SMILES: c1cc(-c2ccc3[nH]ncc3c2)ccn1

IC50 (SRSF protein kinase 2): 203 nM
SMILES: COc1cc(/C=C2/C(=N)N3N=C(C(F)(F)F)SC3=NC2=O)ccc1O
IC50 (K562): 44700 nM
IC50 (HL-60): 44700 nM

IC50 [6]: 2700 nM
SMILES: O=C(Oc1cc(O)c2c(c1)OC(c1cc(O)c(O)c(O)c1)CC2)c1cc(O)c(O)c(O)c1 (stereo not drawn)
